ChEMBL document CHEMBL4311964, “Potent combretastatin A-4 analogs containing 1,2,4-triazole: Synthesis, antiproliferative, anti-tubulin activity, and docking study” (Eur J Med Chem, 2019)

What follows are molecules tested on MCF7 (assay: Antiproliferative activity against human MCF7 cells assessed as cell growth inhibition measured after 48 hrs by MTT assay). Conditions: MCF7, 48 h.
Assay type: functional, cell-based

| SMILES | IC50 |
| --- | --- |
| COc1cccc(NC(=O)c2nc(-c3cc(OC)c(OC)c(OC)c3)n(-c3ccc(F)c(Cl)c3)n2)c1 | 440 nM |
| COc1cc(-c2nc(C(=O)Nc3ccccc3)nn2-c2ccc(F)c(Cl)c2)cc(OC)c1OC | 170 nM |
| COc1ccc(NC(=O)c2nc(-c3cc(OC)c(OC)c(OC)c3)n(-c3ccc(F)c(Cl)c3)n2)c(C)c1 | 1560 nM |
| COc1ccc(NC(=O)c2nc(-c3cc(OC)c(OC)c(OC)c3)n(-c3ccc(F)c(Cl)c3)n2)cc1 | 650 nM |
| COc1cc(-c2nc(C(=O)Nc3ccc(F)cc3)nn2-c2ccc(F)c(Cl)c2)cc(OC)c1OC | 180 nM |

Stronger by IC50, values ahead:

| IC50 | SMILES |
| --- | --- |
| 39 nM | COc1ccc(-n2nc(C(=O)Nc3ccc(OC(F)(F)F)cc3)nc2-c2cc(OC)c(OC)c(OC)c2)cc1Cl |
| 110 nM | COc1cc(-c2nc(C(=O)Nc3cccc(F)c3)nn2-c2ccc(F)c(Cl)c2)cc(OC)c1OC |
| 120 nM | COc1cc(-c2nc(C(=O)Nc3ccc(F)c(Cl)c3)nn2-c2ccc(F)c(Cl)c2)cc(OC)c1OC |
| 130 nM | COc1ccc(C)cc1NC(=O)c1nc(-c2cc(OC)c(OC)c(OC)c2)n(-c2ccc(F)c(Cl)c2)n1 |
| 50 nM | COc1cc(-c2nc(C(=O)Nc3ccc(C(=O)O)cc3)nn2-c2ccc(F)c(Cl)c2)cc(OC)c1OC |

These molecules were tested on HL-60 (assay: Antiproliferative activity against human HL60 cells assessed as cell growth inhibition measured after 48 hrs by MTT assay). Conditions: HL-60, 48 h.
Assay type: functional, cell-based

| SMILES | IC50 |
| --- | --- |
| COc1cccc(NC(=O)c2nc(-c3cc(OC)c(OC)c(OC)c3)n(-c3ccc(F)c(Cl)c3)n2)c1 | 800 nM |
| COc1cc(-c2nc(C(=O)Nc3ccccc3)nn2-c2ccc(F)c(Cl)c2)cc(OC)c1OC | 1000 nM |
| COc1ccc(NC(=O)c2nc(-c3cc(OC)c(OC)c(OC)c3)n(-c3ccc(F)c(Cl)c3)n2)c(C)c1 | 360 nM |
| COc1ccc(NC(=O)c2nc(-c3cc(OC)c(OC)c(OC)c3)n(-c3ccc(F)c(Cl)c3)n2)cc1 | 2260 nM |
| COc1cc(-c2nc(C(=O)Nc3ccc(F)cc3)nn2-c2ccc(F)c(Cl)c2)cc(OC)c1OC | 300 nM |

The next lines start with the values.

| IC50 | SMILES |
| --- | --- |
| 810 nM | COc1ccc(-n2nc(C(=O)Nc3ccc(OC(F)(F)F)cc3)nc2-c2cc(OC)c(OC)c(OC)c2)cc1Cl |
| 620 nM | COc1cc(-c2nc(C(=O)Nc3cccc(F)c3)nn2-c2ccc(F)c(Cl)c2)cc(OC)c1OC |
| 5470 nM | COc1cc(-c2nc(C(=O)Nc3ccc(F)c(Cl)c3)nn2-c2ccc(F)c(Cl)c2)cc(OC)c1OC |
| 1820 nM | COc1ccc(C)cc1NC(=O)c1nc(-c2cc(OC)c(OC)c(OC)c2)n(-c2ccc(F)c(Cl)c2)n1 |
| 1180 nM | COc1cc(-c2nc(C(=O)Nc3ccc(C(=O)O)cc3)nn2-c2ccc(F)c(Cl)c2)cc(OC)c1OC |

Each molecule was assayed on HepG2 (assay: Antiproliferative activity against human HepG2 cells assessed as cell growth inhibition measured after 48 hrs by MTT assay). Conditions: HepG2, 48 h.
Assay type: functional, cell-based

| SMILES | IC50 |
| --- | --- |
| COc1cccc(NC(=O)c2nc(-c3cc(OC)c(OC)c(OC)c3)n(-c3ccc(F)c(Cl)c3)n2)c1 | 560 nM |
| COc1cc(-c2nc(C(=O)Nc3ccccc3)nn2-c2ccc(F)c(Cl)c2)cc(OC)c1OC | 2230 nM |
| COc1ccc(NC(=O)c2nc(-c3cc(OC)c(OC)c(OC)c3)n(-c3ccc(F)c(Cl)c3)n2)c(C)c1 | 580 nM |
| COc1ccc(NC(=O)c2nc(-c3cc(OC)c(OC)c(OC)c3)n(-c3ccc(F)c(Cl)c3)n2)cc1 | 750 nM |
| COc1cc(-c2nc(C(=O)Nc3ccc(F)cc3)nn2-c2ccc(F)c(Cl)c2)cc(OC)c1OC | 520 nM |

Other lines, results leading:

| IC50 | SMILES |
| --- | --- |
| 7110 nM | COc1ccc(-n2nc(C(=O)Nc3ccc(OC(F)(F)F)cc3)nc2-c2cc(OC)c(OC)c(OC)c2)cc1Cl |
| 990 nM | COc1cc(-c2nc(C(=O)Nc3cccc(F)c3)nn2-c2ccc(F)c(Cl)c2)cc(OC)c1OC |
| 900 nM | COc1cc(-c2nc(C(=O)Nc3ccc(F)c(Cl)c3)nn2-c2ccc(F)c(Cl)c2)cc(OC)c1OC |
| 2820 nM | COc1ccc(C)cc1NC(=O)c1nc(-c2cc(OC)c(OC)c(OC)c2)n(-c2ccc(F)c(Cl)c2)n1 |
| 1590 nM | COc1cc(-c2nc(C(=O)Nc3ccc(C(=O)O)cc3)nn2-c2ccc(F)c(Cl)c2)cc(OC)c1OC |
